Data taken from paper PMC8151276, “An Integrated Approach toward NanoBRET Tracers for Analysis of GPCR Ligand Engagement” (Molecules, 2021).

Assays:
Type in all cases: binding
[1] = biological target: T1, F2R (Homo sapiens, UniProt P25116); experiment: NanoBRET screen HiBiT-F2R in HEK293
T1 construct: purchased Promega (in-house HiBiT-GPCR construct library, NanoBRET)
T1 sequence (P25116 22-425): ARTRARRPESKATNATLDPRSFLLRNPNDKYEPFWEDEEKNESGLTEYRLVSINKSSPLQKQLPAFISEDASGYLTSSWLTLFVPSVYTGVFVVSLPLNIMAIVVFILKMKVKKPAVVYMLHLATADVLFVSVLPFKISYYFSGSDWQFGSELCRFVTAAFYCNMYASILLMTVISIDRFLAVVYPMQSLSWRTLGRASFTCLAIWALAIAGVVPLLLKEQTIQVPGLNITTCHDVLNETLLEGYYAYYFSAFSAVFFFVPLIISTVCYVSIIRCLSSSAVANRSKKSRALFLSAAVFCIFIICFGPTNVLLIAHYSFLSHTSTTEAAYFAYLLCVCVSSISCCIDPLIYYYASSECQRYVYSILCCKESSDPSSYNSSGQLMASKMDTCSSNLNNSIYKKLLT
Procedure: (§1) Each tracer candidate was screened across the entire library of HiBiT-GPCR constructs using NanoBRET as the detection modality. As depicted in Figure 4A, the specificity of interactions was evaluated through decrease in BRET due to competitive displacement of a bound tracer by excess parental compound. Each tracer was analyzed for binding to each HiBiT-GPCR fusion in the absence and in the presence of competing parental compound. Briefly, HEK293 cells were transfected with HiBiT-GPCR constructs diluted into promoterless DNA to reduce expression and maximize translocation to the cell surface. Each tracer candidate was then screened at concentrations of 1 μM and 0.1 μM across cells expressing these fusions. Cells were treated for 1.5 h with tracer either alone or in the presence of 20 μM competing parental compound (i.e., control). BRET was measured upon addition of purified LgBiT and subsequent complementation with HiBiT genetically fused to a GPCR. The specificity of interactions was assessed through a decrease in BRET signal due to competitive displacement of the bound tracer. To further gauge the robustness of these interactions, the fold response over the control (i.e., BRETtracer/BRETcontrol) was calculated. We chose a 1.5-fold response, which translates to ≥7-fold signal over noise as the minimal threshold required to score an interaction as positive. […]. Below we highlight the screening results obtained for our exemplary fluorescent tracers based on Clozapine, Amitriptyline and AZD1283.
(§2) HiBiT-GPCR DNA constructs were diluted in 10 mM Tris pH 8 to a final concentration of 0.01 μg/μL, arrayed in 96-well plates and stored at −20 °C. For transfection, HEK293 cells were suspended in Opti-MEM (without phenol red) supplemented with 2% fetal bovine serum (Seradigm) and 100 units/mL penicillin–streptomycin (Gibco) at a final concentration of 220,000 cells/mL and dispensed into white 96-well plates at 90 μL/well. Subsequent transfections and screens were carried using an Agilent Bravo Automated Liquid Handling Platform. First, the 96-well HiBiT DNA arrays were diluted 25-fold in Opti-MEM (without serum or phenol red) to a final concentration of 0.0004 μg/μL and 20 μL of the diluted DNAs were transferred into new 96-well plates. Next, promoterless carrier DNA (1 μg/μL) was diluted 25-fold (0.04 μg/μL) and then dispensed into the diluted arrays at 20 μL/well. Following brief mixing, Viafect transfection reagent (Promega) diluted 16-fold into Opti-MEM was dispensed into the plates at 40 μL/well. After mixing by pipetting, plates were incubated for 10 min on the pipetting station deck. The DNA-transfection reagent complexes were then added to plates containing cells. To facilitate the screen, 10 μL of DNA-transfection reagent complexes were added in duplicates to the top 4 and bottom 4 rows, resulting in two identical 48-well arrays per plate. Plates with transfected cells were incubated for 18–20 h at 37 °C/5% CO2. A screen of each tracer across the entire library using two different concentrations requires duplicate plates of transfected cells. Depending on the number of tracers being screened, transfections can be scaled up using the same ratios. The next day, for each tracer, four 20× screening solutions in tracer dilution buffer (Promega) were prepared: two duplicates at final concentration of 20 μM and two duplicates at a final concentration of 2 μM. A competing unmodified compound was added to one of each duplicate at a final concentration of 400 μM. The four resulting solutions were diluted 4-fold in Opti-MEM without serum or phenol red to generate 5× solutions (5 µM and 0.5 µM tracer +/− 100 μM competing compound). To screen the library, a BioTek MultiFlo FX liquid dispenser was used to dispense 22.5 µL of tracer solution to the top 4 rows and 22.5 µL tracer + competing compound solution to the 4 bottom rows. Plates were briefly mixed on an orbital shaker and incubated for 1.5 h at room temperature. […]

[2] = biological target: T2, LTB4R2 (Homo sapiens, UniProt Q9NPC1); experiment: NanoBRET screen HiBiT-LTB4R2 in HEK293
T2 construct: purchased Promega (in-house HiBiT-GPCR construct library, NanoBRET)
T2 sequence (Q9NPC1 1-358): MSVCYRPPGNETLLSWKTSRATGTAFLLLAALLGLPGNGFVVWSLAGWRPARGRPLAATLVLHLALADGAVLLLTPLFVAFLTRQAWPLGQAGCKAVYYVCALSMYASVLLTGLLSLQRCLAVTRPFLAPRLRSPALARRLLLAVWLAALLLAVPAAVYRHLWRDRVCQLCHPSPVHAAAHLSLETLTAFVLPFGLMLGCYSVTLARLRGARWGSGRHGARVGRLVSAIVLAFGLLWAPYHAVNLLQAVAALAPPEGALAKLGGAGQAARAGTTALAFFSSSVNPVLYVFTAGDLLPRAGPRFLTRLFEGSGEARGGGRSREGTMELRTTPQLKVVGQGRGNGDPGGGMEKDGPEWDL
Procedure: as §1, §2

[3] = biological target: T3, ADRA2C (Homo sapiens, UniProt P18825); experiment: NanoBRET screen HiBiT-ADRA2C in HEK293
T3 construct: purchased Promega (in-house HiBiT-GPCR construct library, NanoBRET)
T3 sequence (P18825 1-462): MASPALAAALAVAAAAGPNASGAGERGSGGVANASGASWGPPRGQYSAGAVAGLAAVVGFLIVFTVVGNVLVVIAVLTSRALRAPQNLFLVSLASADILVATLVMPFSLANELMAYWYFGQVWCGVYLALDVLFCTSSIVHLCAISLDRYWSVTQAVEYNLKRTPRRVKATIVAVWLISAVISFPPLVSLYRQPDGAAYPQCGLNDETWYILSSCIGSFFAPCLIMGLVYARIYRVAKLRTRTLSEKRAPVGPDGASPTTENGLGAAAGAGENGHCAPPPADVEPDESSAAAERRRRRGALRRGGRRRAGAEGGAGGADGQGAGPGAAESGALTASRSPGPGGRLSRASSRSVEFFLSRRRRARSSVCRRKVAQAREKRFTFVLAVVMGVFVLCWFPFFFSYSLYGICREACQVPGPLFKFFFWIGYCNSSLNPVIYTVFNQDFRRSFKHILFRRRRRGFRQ
Procedure: as §1, §2

[4] = tracer at 0.1μM, listed as amitriptyline-b-2-NB590
[5] = tracer at 1μM, listed as amitriptyline-b-2-NB590

SMILES | NanoBRET Fold Response ([1]; F2R, tracer 0.1μM) | NanoBRET Fold Response ([1]; F2R, tracer 1μM) | NanoBRET Fold Response ([2]; LTB4R2, tracer 0.1μM) | NanoBRET Fold Response ([2]; LTB4R2, tracer 1μM) | NanoBRET Fold Response ([3]; ADRA2C, tracer 0.1μM) | NanoBRET Fold Response ([3]; ADRA2C, tracer 1μM) | other results
CC(C)N(CC[C@H](c1ccccc1)c1cc(CCNC(=O)CCOCCOCCOCCOCCNC(=O)CCc2ccc3n2[B-](F)(F)[N+]2=C(c4ccc[nH]4)C=CC2=C3)ccc1O)C(C)C [Tolterodine-2-NB590] | 1.20 | 1.03 | 1.00 | 1.22 | 0.85 | 1.04 | 
CN1CCN(C2=Nc3cc(Cl)ccc3N(CC(=O)NCCOCCOCCOCCOCCNC(=O)CCc3ccc4n3[B-](F)(F)[N+]3=C(c5ccc[nH]5)C=CC3=C4)c3ccccc32)CC1 [Clozapine-c-2-NB590] |  |  |  |  |  |  | NanoBRET Fold Response ([1]; F2R, 0.1μM tracer): 0.99; NanoBRET Fold Response ([1]; F2R, 1μM tracer): 0.99; NanoBRET Fold Response ([2]; LTB4R2, 0.1μM tracer): 1.02; NanoBRET Fold Response ([2]; LTB4R2, 1μM tracer): 0.91; NanoBRET Fold Response ([3]; ADRA2C, 0.1μM tracer): 1.05; NanoBRET Fold Response ([3]; ADRA2C, 1μM tracer): 1.49
N#CN=C(NCCCOc1cccc(CN2CCCCC2)c1)NCCNC(=O)CCOCCOCCOCCOCCNC(=O)CCc1ccc2n1[B-](F)(F)[N+]1=C(c3ccc[nH]3)C=CC1=C2 [Aminopotentidine-2-NB590] | 1.06 | 1.00 | 0.96 | 1.04 | 1.35 | 1.25 | 
COc1ccc2c(n1)c(CCNC(C)=O)cn2CCNC(=O)CCc1ccc2n1[B-](F)(F)[N+]1=C(c3ccc[nH]3)C=CC1=C2 [Azamelatonin-1-NB590] |  |  |  |  |  |  | NanoBRET Fold Response ([1]; 0.1μM tracer): 0.98; NanoBRET Fold Response ([1]; 1μM tracer): 0.96; NanoBRET Fold Response ([2]; 0.1μM tracer): 1.02; NanoBRET Fold Response ([2]; 1μM tracer): 1.02; NanoBRET Fold Response ([3]; 0.1μM tracer): 1.01; NanoBRET Fold Response ([3]; 1μM tracer): 0.79
CC(C)N(CC[C@H](c1ccccc1)c1cc(CCNC(=O)c2ccc(CNC(=O)CCc3ccc4n3[B-](F)(F)[N+]3=C(c5ccc[nH]5)C=CC3=C4)cc2)ccc1O)C(C)C [Tolterodine-BZ-NB590] | 1.09 | 0.85 | 0.91 | 0.95 | 1.09 | 1.11 | 
O=C(CCc1ccc2n1[B-](F)(F)[N+]1=C(c3ccc[nH]3)C=CC1=C2)NCCOCCOCCNC(=O)OCCOCCN1CCN(C2=Nc3ccccc3Sc3ccccc32)CC1 [Quetiapine-a-2-NB590] | 1.09 | 1.41 | 1.09 | 1.04 |  | 1.42 | 
Cc1cc2c(s1)Nc1ccccc1N=C2N1CCN(CCCNC(=O)CCOCCOCCOCCOCCNC(=O)CCc2ccc3n2[B-](F)(F)[N+]2=C(c4ccc[nH]4)C=CC2=C3)CC1 [Olanzapine-a-2-NB590] | 1.01 | 0.90 | 0.97 | 1.06 | 0.97 | 1.50 | 
CN(C)CCC=C1c2ccccc2CCc2ccc(C(=O)NCCNC(=O)CCOCCOCCOCCOCCNC(=O)CCc3ccc4n3[B-](F)(F)[N+]3=C(c5ccc[nH]5)C=CC3=C4)cc21 [Amitriptyline-b-2-NB590] |  |  |  |  |  |  | NanoBRET Fold Response [1, 4]: 0.76; NanoBRET Fold Response [1, 5]: 0.97; NanoBRET Fold Response [2, 4]: 1.03; NanoBRET Fold Response [2, 5]: 1.03; NanoBRET Fold Response [3, 4]: 1.08; NanoBRET Fold Response [3, 5]: 1.08
O=C(CCOCCOCCOCCOCCNC(=O)CCc1ccc2n1[B-](F)(F)[N+]1=C(c3ccc[nH]3)C=CC1=C2)NCCCN1CCN(C2=Nc3cc(Cl)ccc3Nc3ccccc32)CC1 [Clozapine-a-2-NB590] |  |  |  |  |  |  | NanoBRET Fold Response ([1]; F2R, 0.1μM tracer): 1.12; NanoBRET Fold Response ([1]; F2R, 1μM tracer): 1.05; NanoBRET Fold Response ([2]; LTB4R2, 0.1μM tracer): 1.03; NanoBRET Fold Response ([2]; LTB4R2, 1μM tracer): 0.88; NanoBRET Fold Response ([3]; ADRA2C, 0.1μM tracer): 1.80; NanoBRET Fold Response ([3]; ADRA2C, 1μM tracer): 1.62
CN1CCN(C2=Nc3cc(Cl)ccc3Nc3ccc(CNC(=O)CCOCCOCCOCCOCCNC(=O)CCc4ccc5n4[B-](F)(F)[N+]4=C(c6ccc[nH]6)C=CC4=C5)cc32)CC1 [Clozapine-b-2-NB590] |  |  |  |  |  |  | NanoBRET Fold Response ([1]; F2R, 0.1μM tracer): 1.02; NanoBRET Fold Response ([1]; F2R, 1μM tracer): 1.01; NanoBRET Fold Response ([2]; LTB4R2, 0.1μM tracer): 0.97; NanoBRET Fold Response ([2]; LTB4R2, 1μM tracer): 1.16; NanoBRET Fold Response ([3]; ADRA2C, 0.1μM tracer): 1.25; NanoBRET Fold Response ([3]; ADRA2C, 1μM tracer): 1.67
Cc1nc2n(c(=O)c1CCN1CCC(c3noc4cc(F)ccc34)CC1)CCCC2OC(=O)NCCOCCOCCOCCOCCNC(=O)CCc1ccc2n1[B-](F)(F)[N+]1=C(c3ccc[nH]3)C=CC1=C2 (centres unmarked) [Risperidone-2-NB590] | 0.97 | 0.78 | 0.97 | 0.94 | 1.59 | 1.37 | 
